From US7629344B2, “3-(imidazolyl)-pyrazolo[3,4-b]pyridines” (ChemoCentryx, Inc., priority 2007, dated 2009) come the findings set out here.

Tested on in the first series: not given
Assay: not given
Details: not given
`COc1cc(N2CCN(C(=O)Cn3nc(-c4ncc[nH]4)c4cccnc43)CC2)ccc1Cl` [1.016, 1-[4-(4-Chloro-3-methoxy-phenyl)-piperazin-1-yl]-2-[3-(1H-imidazol-2-yl)-pyrazolo[3,4-b]pyridin-1-yl]-ethanone] gave a melting point of 149 to 152 °C.

Tested on in another series: not listed separately
The series is described as follows: Pharmacokinetic tests conducted in animals. In kind it is in vivo. The settings on record: over related compounds (U.S. Publication No. 2007/0010524A1).
Turning to `COc1cc(N2CCN(C(=O)Cn3nc(-c4ncc[nH]4)c4cccnc43)CC2)ccc1Cl` [1.016, 1-[4-(4-Chloro-3-methoxy-phenyl)-piperazin-1-yl]-2-[3-(1H-imidazol-2-yl)-pyrazolo[3,4-b]pyridin-1-yl]-ethanone], the AUC result is on record as “increased”, the Cmax entry is given as “increased” and the oral bioavailability entry is reported as “improved”.

The target in the next series is T1, CCR1 (Homo sapiens, UniProt P32246).
T1 construct: host or cells: THP-1 cells or freshly isolated monocytes
T1 sequence (P32246 1-355): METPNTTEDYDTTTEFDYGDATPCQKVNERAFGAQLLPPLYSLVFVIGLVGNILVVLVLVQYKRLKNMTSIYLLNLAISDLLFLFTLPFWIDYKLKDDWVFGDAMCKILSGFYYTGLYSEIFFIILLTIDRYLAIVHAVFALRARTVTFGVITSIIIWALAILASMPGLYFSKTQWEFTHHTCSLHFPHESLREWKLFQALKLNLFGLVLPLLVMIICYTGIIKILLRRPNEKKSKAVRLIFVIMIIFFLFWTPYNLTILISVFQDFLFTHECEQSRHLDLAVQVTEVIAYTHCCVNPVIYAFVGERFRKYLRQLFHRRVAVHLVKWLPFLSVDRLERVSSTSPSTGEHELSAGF
The series is described as follows: Chemotaxis assay (inhibition of CCR1 mediated migration). The following applies: THP-1 or monocyte cells; CCR1 chemokine ligand (MIP-1α, CCL15/Leukotactin); 1-2 hours at 37° C. In kind it is cell-based. As to the method:
THP-1 cells were obtained from ATCC (TIB-202) and cultured as a suspension in RPMI-1640 medium supplemented with 2 mM L-glutamine, 1.5 g/L sodium bicarbonate, 4.5 g/L glucose, 10 mM HEPES, 1 mM sodium pyruvate, 0.05% 2-mercaptoethanol and 10% FBS. Cells were grown under 5% CO2/95% air, 100% humidity at 37° C. and subcultured twice weekly at 1:5 (cells were cultured at a density range of 2×10^5 to 2×10^6 cells/mL) and harvested at 1×10^6 cells/mL. THP-1 cells express CCR1 and can be used in CCR1 binding and functional assays. • 2. Chemotaxis Assays
Chemotaxis assays were performed using 5 μm pore polycarbonate, polyvinylpyrrolidone-coated filters in 96-well chemotaxis chambers (Neuroprobe; Gaithersburg, Md.) using chemotaxis buffer (Hank's balanced salt solution (HBSS) and 1% FBS). CCR1 chemokine ligands (i.e., MIP-1α, CCL15/Leukotactin; R&D Systems; Minneapolis, Minn.) are use to evaluate compound mediated inhibition of CCR1 mediated migration. Other chemokines (i.e., SDF-1α; R&D Systems; Minneapolis, Minn.) are used as specificity controls. The lower chamber was loaded with 29 μl of chemokine (i.e., 0.1 nM CCL15/Leukotactin) and varying amounts of compound; the top chamber contained 100,000 THP-1 or monocyte cells in 20 μl. The chambers were incubated 1-2 hours at 37° C., and the number of cells in the lower chamber quantified either by direct cell counts in five high powered fields per well or by the CyQuant assay (Molecular Probes), a fluorescent dye method that measures nucleic acid content and microscopic observation. • B. Identification of Inhibitors of CCR1
One of the primary functions of chemokines is their ability to mediate the migration of chemokine receptor-expressing cells, such as white blood cells. To confirm that a compound of interest inhibited not only CCR1 specific binding and signaling (at least as determined by calcium mobilization assays), but also CCR1 mediated migration, a chemotaxis assay was employed. THP-1 myelomonocytic leukemia cells, which resemble monocytes, as wells as freshly isolated monocytes, were used as targets for chemoattraction by CCR1 chemokine ligands (i.e., MIP-1α, CCL15/leukotactin). Cells were placed in the top compartment of a microwell migration chamber, while MIP-1α (or other potent CCR1 chemokine ligand) and increasing concentrations of a compound of interest was loaded in the lower chamber. […] In this assay, the amount of compound was varied; while cell number and chemokine agonist concentrations were held constant. After the chemotaxis chambers were incubated 1-2 hours at 37° C., the responding cells in the lower chamber were quantified by labeling with the CyQuant assay (Molecular Probes), a fluorescent dye method that measures nucleic acid content, and by measuring with a Spectrafluor Plus (Tecan). The computer program Prism from GraphPad, Inc. (San Diego, Calif.) was used to calculate IC50 values. IC50 values are those compound concentrations required to inhibit the number of cells responding to a CCR1 agonist by 50%. • 1. In Vivo Efficacy • a) Rabbit Model of Destructive Joint Inflammation
`CCOc1cc(N2CCN(C(=O)Cn3nc(-c4ncc[nH]4)c4cccnc43)CC2)ccc1Cl` [1.003, 1-[4-(4-Chloro-3-ethoxyphenyl)piperazin-1-yl]-2-[3-(1H-imidazol-2-yl)pyrazolo[3,4-b]pyridin-1-yl]ethanone]: the half-maximal inhibitory concentration (IC50) was not above 100 nM.
Still for that read-out and setting: with `COc1cc(N2CCN(C(=O)Cn3nc(-c4ncc[nH]4)c4cccnc43)CC2)c(F)cc1Cl` [1.004, 1-[4-(4-Chloro-2-fluoro-5-methoxyphenyl)piperazin-1-yl]-2-[3-(1H-imidazol-2-yl)-pyrazolo[3,4-b]pyridin-1-yl]ethanone] the figure was not above 100 nM.
On the same count and under the same terms, with `CCOc1cc(N2CCN(C(=O)Cn3nc(-c4ncc[nH]4)c4cccnc43)[C@@H](C)C2)ccc1Cl` [1.010, 2-(3-(1H-imidazol-2-yl)-1H-pyrazolo[3,4-b]pyridin-1-yl)-1-((S)-4-(4-chloro-3-ethoxyphenyl)-2-methylpiperazin-1-yl)ethanone] the figure was not above 100 nM; with `COc1cc(N2CCN(C(=O)Cn3nc(-c4nccn4C)c4cccnc43)CC2)ccc1Cl` [1.017, 1-[4-(4-Chloro-3-methoxy-phenyl)-piperazin-1-yl]-2-[3-(1-methyl-1H-imidazol-2-yl)-pyrazolo[3,4-b]pyridin-1-yl]-ethanone], not above 100 nM; with `CCOc1cc(N2CCN(C(=O)Cn3nc(-c4ncc[nH]4)c4cccnc43)CC2)c(F)cc1Cl` [1.001, 1-[4-(4-Chloro-5-ethoxy-2-fluorophenyl)piperazin-1-yl]-2-[3-(1H-imidazol-2-yl)-pyrazolo[3,4-b]pyridin-1-yl]ethanone], not above 100 nM.
Still for that read-out and setting: with `COc1cc(N2CCN(C(=O)Cn3nc(-c4ncc[nH]4)c4cccnc43)C[C@@H]2C)ccc1Cl` [1.008, 1-[(S)-4-(4-Chloro-3-methoxyphenyl)-3-methylpiperazin-1-yl]-2-[3-(1H-imidazol-2-yl)-pyrazolo[3,4-b]pyridin-1-yl]ethanone] the figure was not above 100 nM; with `COc1cc(N2CCN(C(=O)Cn3nc(-c4ncc[nH]4)c4cccnc43)[C@@H](C)C2)ccc1Cl` [1.005, 1-[(S)-4-(4-Chloro-3-methoxyphenyl)-2-methylpiperazin-1-yl]-2-[3-(1H-imidazol-2-yl)-pyrazolo[3,4-b]pyridin-1-yl]ethanone], not above 100 nM.
`C[C@H]1CN(c2ccc(Cl)c(OCCF)c2)CCN1C(=O)Cn1nc(-c2ncc[nH]2)c2cccnc21` [1.012, 2-(3-(1H-imidazol-2-yl)-1H-pyrazolo[3,4-b]pyridin-1-yl)-1-((S)-4-(3-(2-fluoroethoxy)-4-chlorophenyl)-2-methylpiperazin-1-yl)ethanone] displayed a 50% inhibitory concentration (IC50) not above 100 nM.
Same read-out and setting: then `O=C(Cn1nc(-c2ncc[nH]2)c2cccnc21)N1CCN(c2ccc(Cl)c(C(F)(F)F)c2)CC1` [1.014, 1-[4-(4-Chloro-3-trifluoromethyl-phenyl)-piperazin-1-yl]-2-[3-(1H-imidazol-2-yl)-pyrazolo[3,4-b]pyridin-1-yl]-ethanone], with more than 100 nM; and `O=C(Cn1nc(-c2ncc[nH]2)c2cccnc21)N1CCN(c2ccc(Cl)c(OC(F)(F)F)c2)CC1` [1.015, 1-[4-(4-Chloro-3-trifluoromethoxy-phenyl)-piperazin-1-yl]-2-[3-(1H-imidazol-2-yl)-pyrazolo[3,4-b]pyridin-1-yl]-ethanone], with more than 100 nM; and `O=C(Cn1nc(-c2ncc[nH]2)c2cccnc21)N1CCN(c2ccc(Cl)c(OCCF)c2)CC1` [1.011, 2-(3-(1H-imidazol-2-yl)-1H-pyrazolo[3,4-b]pyridin-1-yl)-1-(4-(3-(2-fluoroethoxy)-4-chlorophenyl)piperazin-1-yl)ethanone], with not above 100 nM.
The same measure, in the same setting: with `COc1cc(N2CCN(C(=O)Cn3nc(-c4ncc[nH]4)c4cccnc43)C[C@H]2C)ccc1Cl` [1.007, 1-[(R)-4-(4-Chloro-3-methoxyphenyl)-3-methylpiperazin-1-yl]-2-[3-(1H-imidazol-2-yl)-pyrazolo[3,4-b]pyridin-1-yl]ethanone] the figure was not above 100 nM; with `Cc1cc(N2CCN(C(=O)Cn3nc(-c4ncc[nH]4)c4cccnc43)CC2)ccc1Cl` [1.013, 1-[4-(4-Chloro-3-methyl-phenyl)-piperazin-1-yl]-2-[3-(1H-imidazol-2-yl)-pyrazolo[3,4-b]pyridin-1-yl]-ethanone], not above 100 nM.
On the same count and under the same terms, then `COc1cc(N2CCN(C(=O)Cn3nc(-c4ncc[nH]4)c4cccnc43)[C@@H](C)C2)c(F)cc1Cl` [1.006, 1-[(S)-4-(4-Chloro-2-fluoro-5-methoxyphenyl)-2-methylpiperazin-1-yl]-2-[3-(1H-imidazol-2-yl)pyrazolo[3,4-b]pyridin-1-yl]ethanone], with not above 100 nM.
Compound `COc1cc(N2CCN(C(=O)Cn3nc(-c4ncc[nH]4)c4cccnc43)[C@H](C)C2)ccc1Cl` [1.009, 1-[(R)-4-(4-Chloro-3-methoxyphenyl)-2-methylpiperazin-1-yl]-2-[3-(1H-imidazol-2-yl)-pyrazolo[3,4-b]pyridin-1-yl]ethanone] gave a concentration for half-maximal inhibition (IC50) not above 100 nM.
`COc1cc(N2CCN(C(=O)Cn3nc(-c4ncc[nH]4)c4cccnc43)CC2)ccc1Cl` [1.016, 1-[4-(4-Chloro-3-methoxy-phenyl)-piperazin-1-yl]-2-[3-(1H-imidazol-2-yl)-pyrazolo[3,4-b]pyridin-1-yl]-ethanone] showed an IC50 not above 100 nM.
Consider `O=C(Cn1nc(-c2ncc[nH]2)c2cccnc21)N1CCN(c2cc(OCCF)c(Cl)cc2F)CC1` [1.002, 1-{4-[4-Chloro-2-fluoro-5-(2-fluoroethoxy)-phenyl]piperazin-1-yl}-2-[3-(1H-imidazol-2-yl)-pyrazolo[3,4-b]pyridin-1-yl]ethanone], for which the half-maximal inhibitory concentration (IC50) is not above 100 nM.

In the next series the test system is Female New Zealand rabbits. The series is described as follows: Rabbit model of destructive joint inflammation (rabbit LPS study). In kind it is in vivo. The settings on record: intra-articular LPS (10 ng) in both knees; dosed orally 2 hours before and 4 hours after LPS; knees lavaged sixteen hours after LPS. As to the method: A rabbit LPS study was conducted essentially as described in Podolin, et al. J. Immunol. 169(11):6435-6444 (2002). Female New Zealand rabbits (approximately 2 kilograms) were treated intra-articularly in both knees with LPS (10 ng). The compound of interest, for example 1.016, (formulated in 1% methocel) or vehicle (1% methocel) was dosed orally at a 5 ml/kg dose volume at two times (2 hours before the intra-articular LPS injection and 4 hours after the intra-articular LPS injection). Sixteen hours after the LPS injection, knees were lavaged and cells counts were performed. Beneficial effects of treatment were determined by reduction in the number of inflammatory cells recruited to the inflamed synovial fluid of the knee joints.
As for `COc1cc(N2CCN(C(=O)Cn3nc(-c4ncc[nH]4)c4cccnc43)CC2)ccc1Cl` [1.016, 1-[4-(4-Chloro-3-methoxy-phenyl)-piperazin-1-yl]-2-[3-(1H-imidazol-2-yl)-pyrazolo[3,4-b]pyridin-1-yl]-ethanone], the “number of inflammatory cells recruited to the inflamed synovial fluid of the knee joints” value is reported as “significant reduction”.

As a reminder, the melting point is the temperature of the solid-liquid transition. The IC50 is the concentration at which inhibition is half-maximal.
